Structure (SMILES)	melting point [°C]
CNC(=O)N(C)C(CCSC)P(=O)(O)O (configuration not stated)	164 to 167
c1ccc(COc2ccc(OCC3CO3)cc2)cc1 (configuration not stated)	68
CCOC(=O)C1(NC(=O)Nc2cccc(C)c2)N=C(c2ccc(Cl)cc2)c2ccccc2-n2c(C)nnc21 (configuration not stated)	168 to 172
O=C(O)/C=C/c1ccc(N2CCC(=O)CC2)cc1	215
CC=CC(=O)Nc1cc(C(C)(C)C)c(O)c(C(C)(C)C)c1	211 to 214
O=C(Nc1ccc(C(=O)N2Cc3ccccc3Cc3ccccc32)cc1)c1cc(Cl)cc(Cl)c1	257 to 259
N#Cc1c2c(c3c(c1N1CCCC1)Cc1ccccc1-3)Cc1ccccc1-2	158 to 160
O=c1cc(-c2ccc(O)c(CO)c2)oc2cccnc12	226 to 227
NS(=O)(=O)c1ccc(-c2cccc(-c3nc(-c4ccc(C(F)(F)F)cc4)cc(C(F)(F)F)n3)c2)s1	204
CC(C)[C@H](NC(=O)OCc1ccccc1)C(=O)N(CC(=O)O)C1CCCCCC1	48 to 51
O=C1NC(=O)C(=Cc2ccc(OCCCN3Cc4ccccc4C3=O)cc2)S1	260 to 263
O=C(O)c1cc2c(Cl)cccc2s1	227 to 231
Clc1ncnc(Cl)c1C1OCCO1	108 to 110
CCCc1nc2c(N)nc3cc(OCC(=O)N4CCOCC4)ccc3c2s1	200 to 203
Cc1[nH]n(C2CCCC2C)c2nc(-c3ccncc3)nc(=O)c1-2 (configuration not stated)	290 to 291
CC(=O)c1ccc(S(=O)(=O)NCCc2ccc(CC(=O)O)cc2)cc1	193 to 194
COC(=O)C1Cc2sc3c(c2C1)C(c1ccccc1Cl)=NCC(N(C)C1(C)OCCO1)=N3 (configuration not stated)	166 to 168
NCCc1cn(C(c2ccccc2)(c2ccccc2)c2ccccc2)cn1	111 to 113
CCOc1cc(N(C)C)c(Cl)cc1C(=O)NC1CCN(Cc2ccccc2)C1 (configuration not stated)	112 to 113
CN(C(=O)OC(C)(C)C)c1cc(Oc2ccc(C#N)cc2)ccc1[N+](=O)[O-]	141 to 143
O=C(CBr)Nc1cc(Cl)ccc1C(=O)O	156 to 158
C[C@@H](O)[C@](O)(Cn1cncn1)c1ccc(F)cc1F (racemic)	115 to 117
CCCCCCCCCCC(C)(C)C(=O)Nc1c(C)c(N)c(C)c2c1OC(C)(C)C2	125
CCCC(Cc1ccc(OCCN2CCOCC2)cc1)(C(=O)NO)S(=O)(=O)c1ccc(OC)cc1 (configuration not stated)	101
COc1ccc(C(=O)Nc2c(Cl)cncc2Cl)c2c3cc([N+](=O)[O-])ccc3n(C)c12	> 250

Structure (SMILES)	melting point [°C]
CN1Cc2c(cc3ccc4c(c3c2-c2ccc3c(c2)OCO3)OCO4)C1=O	234 to 236
CC(C)C[C@H](NC(=O)OC(C)(C)C)[C@H](O)CO	58 to 59
Cc1nc(NC(=O)c2ccccc2)sc1C(=O)n1ccnc1	228 to 231
COc1ccc(C2=CCN(Cc3n[nH]c4c(F)c(F)ccc34)CC2)cc1	195 to 197
COc1cc(F)c(C2CNCc3ccsc32)cc1OC (configuration not stated)	108 to 111
CCOC(=O)c1ncc2c(c1COC)c1c(Cc3ccccc3Cl)cccc1n2S(=O)(=O)c1ccc(C)cc1	140 to 142
O=c1c(CCO)c(O)c2cccnc2n1-c1ccccc1	235 to 236
Cc1cccc(-c2[nH]c(C(C)C)nc2-c2ccc(F)c(-c3ccc4c(c3)CCS4(=O)=O)c2)n1	119 to 123
O=C(O)c1c[nH]cc2c(=O)n(-c3ccccc3)nc1-2	287 to 302
CCCNCc1nc(-c2ncn3c2[C@@H]2CCN2C(=O)c2c(Cl)cccc2-3)no1	237 to 239
CNc1ccc2[nH]ccc2c1	113 to 114
O=C1NC(=S)NC(=O)C1=Cc1cc(Br)cs1	230
CCOC(=O)C=Cc1cc(Cl)cc(Cl)c1	71 to 73
CC(=O)NNc1ccc(NC(=S)Nc2ccc(NNC(C)=O)cc2)cc1	234 to 236
O=C1c2ccccc2-n2cnc(-c3nc(CN4Cc5ccccc5C4)no3)c2[C@@H]2CCN12	210 to 213
O=c1c2ncn3c2n(c(=O)n1Cc1ccccc1)CC=C3c1cccc(C(F)(F)F)c1	198 to 200
CC(C)(C)[Si](C)(C)Oc1ccc(NC(=O)CCCl)cc1	126
CN(C)Cc1cccc(OCCCNc2nc(N)nn2C)c1	95 to 96.5
CCCCOc1ccc(OCC2(O)CN3CCC2CC3)cc1 (configuration not stated)	110 to 112
CC1=CC2(C)CC3CCCC(C)(C2=O)C13 (configuration not stated)	46 to 47
Oc1cc2c(-c3ccc(Cl)cc3)csc2c(Cl)c1Cl	174 to 176
CC1(C)SCc2ccccc2C1N=CNC#N (configuration not stated)	164 to 166
CCOC(=O)c1cn(CCc2ccc(O)cc2)c2cc(C3CC3)nn2c1=O	95 to 100
Cn1cc(C(=O)O)c(=O)c2cc3cc(F)c(N4CCNC(c5cccc(F)c5)C4)cc3nc21 (racemic)	254
COC(=O)C(O)CC1CCC(=O)N1 (configuration not stated)	87 to 90

Second part, the compound after the results:

melting point [°C]	Structure (SMILES)
233 to 237	Nc1cc(=O)nc(Nc2ccc(Cl)cc2)n1-c1ccccc1
174	O=C(O)CCNC(=O)CNC(=O)c1csc(NC(=O)NCc2ccccc2)n1
48 to 53	CC(C)CN(C(=O)N(CCCl)N=O)C1O[C@H](CO)[C@H](O)[C@H](O)[C@H]1O (some centres not stated)
207 to 208	Nc1ncnc2c1nnn2C1C=CCC1 (configuration not stated)
228 to 230	COCc1nc(N)nc(N)c1-c1cc(Cl)cc(Cl)c1
156	COC(=O)CCC(=O)NS(=O)(=O)c1ccc([N+](=O)[O-])cc1
115 to 117	CC(C)NCC(=O)N1c2ccccc2N(C)S(=O)(=O)c2ccccc21
143 to 144	Cc1cc(OCCC[Si](C)(C)C)c(Cl)cc1N(C#N)C=N
103 to 105	CC(C)c1cc(-c2ccc(F)c3ccc(F)cc23)nc(N)n1
102	OCc1ccc(Cc2ccccc2CO)cc1
158 to 160	NNc1ccc2c(c1)CCNC2=O
164 to 166	O=C(N[C@H]1CCCNC1=O)c1cccc(F)c1
225 to 227	COc1cc2nc(CO)c(CO)c(-c3ccnc(NN)c3)c2cc1OC
240 to 242	Cc1ccc(CSc2nc(N)nc3nc[nH]c23)cc1
154 to 158	Nc1cc(Cl)cc(Cl)c1C(=O)NCc1ccccc1F
258 to 260	CNC(=NCCCc1nc2cc(C3=NNC(=O)CC3C)ccc2[nH]1)NS(=O)(=O)c1ccccc1 (configuration not stated)
79.1	CC(C)(C)OC(=O)N1CCC(NCc2cccc(NC(=O)c3ccc(F)cc3Cl)n2)CC1
181	O=C(Nc1cccnc1S(=O)(=O)c1ccc(Cl)cc1)N[C@@H](Cc1ccc(NC(=O)c2c(Cl)cccc2Cl)cc1)C(=O)O
143	CCOP(=O)(OCC)C(CNC=NNC(=O)c1nc2ccccc2[nH]1)P(=O)(OCC)OCC
148 to 149	Cc1c(NC(=O)c2ccc(OCC3CCOC3)cc2)ccc2cc(CNC3CCCC3)cnc12 (configuration not stated)
50 to 52	CC(C)COP(C)(=O)c1ccccc1S(N)(=O)=O (configuration not stated)
161 to 163	O=C(CCCCCl)Nc1nc2ccccc2[nH]1
122	CN1C(=O)CCC2=C1CCc1ccc(F)cc12
137 to 138	O=C1N(Cc2ccccc2C(F)(F)F)c2ccccc2C12COc1cc3c(cc12)OCCO3 (configuration not stated)
170 to 171	CCCN(C(N)=S)c1cccc2ccccc12
118 to 119	COC(=O)c1c(C)c(OC)cc(O)c1C=O

melting point [°C]	Structure (SMILES)
213	Cc1ccc(S(=O)(=O)c2c(N3CCN(C(=O)c4cccs4)CC3)c3ccccc3n(C)c2=O)cc1
201 to 202	CC(=C1SC(=O)NC1=O)c1ccc(S(=O)(=O)CCc2ccccc2)cc1
118 to 120	CCOC(=O)c1cc(CCc2cc3c(s2)-n2c(C)nnc2CN=C3c2ccccc2Cl)ccc1CC(=O)Nc1cccc(/C=C/c2nc(C3CCC3)cs2)c1
175 to 176	Oc1ccc2c(c1O)Cc1cccc3c1C2CNC3 (configuration not stated)
102 to 103	CCOC(=O)/C(N)=C/C(=O)/C=C/c1ccc(Cl)cc1F
181 to 183	CCOC(=O)c1ncn(-c2nncs2)c1N
154	COc1cc(-c2ccc(NN)nn2)ccc1OC(F)F
148	O=Cc1cncc2ncc(-c3ccccc3)cc12
87.5 to 96.4	O=C(c1cncc(Br)c1)N1CCC(=C2c3ccc(Cl)cc3CCc3cccnc32)CC1
114 to 115	CCCc1nn(-c2ccc(C(F)(F)F)cn2)cc1CCCOc1ccc(CCC(=O)O)c(OC)c1
211	CN(C)S(=O)(=O)N[C@@H](Cc1ccc(Nc2nccc3cnccc23)cc1)C(=O)O
172 to 173	CCOc1ccc(C(=O)N(C)C)c2c1C(=O)N(Cn1nnn(-c3ccccc3)c1=S)S2(=O)=O
145	CC(O)CN(CC(=O)O)CC(C)O (configuration not stated)
113 to 115	CCCc1c(OCCCCCc2c(Cl)c(Cl)cc(OC)c2OC)ccc(C(=O)OC)c1O
134 to 136	CCOc1cc(-n2ccnc2)ccc1C#N
135	CC(=O)Nc1ccc(C=C2c3ccccc3CCc3ccccc32)cc1
150 to 151	CCCCOC(=O)COc1ccc(C(=O)Nc2ccccc2Sc2cccc(C)c2-c2nnn[nH]2)cc1
41 to 44	CCCCCCCCCCCCCCCCOCCSCCOC(=O)N(Cc1ccccn1)C(C)=O
166 to 168	O=S1(=O)CCC=C(O)c2cc(Cl)ccc21
150	CNC(=O)NN(CC(=O)OC)c1cccc(I)c1
136	CCCOc1ccc(C(=O)C=CC(=O)O)cc1OC
141 to 143	Cn1cc(Br)cc(Nc2ccc(N3CCN(CCF)CC3)cn2)c1=O
186 to 187	CCCCn1c(COCC)nc2c(N)nc3ccc(-c4ccccc4)cc3c21
61.5 to 62.5	CCc1c(Cl)cnn(C(C)(C)C)c1=O
196 to 198	COc1ccc(C(=O)N2CCN(c3ccc([N+](=O)[O-])c(C=O)c3)CC2)cc1OC
135 to 136	Cc1cc(F)ccc1C(=C(C=O)c1nnnn1C)c1ccc(F)cc1C

From a melting point compilation (Tetko et al.; mined from patent text by program, amines drawn as free bases though some values may be those of a salt)
